In US20250171434A1, “SEC61 INHIBITORS AND USE THEREOF” (KEZAR LIFE SCIENCES, INC., priority 2022, published 2025):
Where two headings read alike, the source gives them in different places.

What was measured:
[1] = test system: PD1-ss+10aa/Gaussia Luciferase; assay: Dox-Induced PD1-ss-Gluc Assay; format: cell-based; conditions: Flp-In 293 T-REx cells, 24 hours with doxycycline, read-out: 24 hr Dox Inducible PD1ssGluc 293FRT/TO: Mean IC50
Procedure, shortened: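 Doxycycline-induced expression of a PD1-ss+10aa/Gaussia luciferase reporter is measured in stable Flp-In 293 T-REx cells. Compound dilutions containing doxycycline are added one day after plating and incubated at 37 °C, 5% CO2. Values for unassigned stereocentres refer to stereoisomer mixtures.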

[2] = test system: IL-2-FL/Gaussia Luciferase; assay: Dox Inducible IL2-FL-Gluc Assay; format: cell-based; conditions: for IC50: Flp-In 293 T-REx cells, 24 hours with doxycycline, read-out: 24 hr Dox Inducible IL2FLGluc 293FRT/TO: Mean IC50; for 24 hr Dox Inducible IL2FLGluc 293FRT/TO: IL2/PD1: ratio of IC50s IL2/PD1
Procedure, shortened: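 Flp-In 293 T-REx cells stably carrying doxycycline-inducible full-length IL-2 (aa 1-153) fused at its C-terminus to Gaussia luciferase, selected with hygromycin and blasticidin. Cells were plated the day before, then treated with compounds in DMSO/media containing doxycycline at 37° C, 5% CO2.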

[3] = test system: HER3-ss+4aa/Gaussia Luciferase; assay: Dox-Inducible Her3-ss-Gluc Assay; format: cell-based; conditions: Flp-In 293 T-REx cells, 24 hours with doxycycline; Table 3; read-out: 24 hr Dox Inducible Her3(ss + 4)Gluc 293FRT/TO: Mean IC50
Description: Flp-In 293 T-REx™ cells were transfected with pcDNA™5/FRT/TO plasmid inserted with cDNA encoding Gaussia Luciferase fused to the 3′ end of cDNA encoding HER3 signal sequence plus 4 amino acids (N-[…]-C) (SEQ ID NO: 2). Transfected cells were selected for resistance to the selectable markers Hygromycin and Blasticidin to create a stable cell line that contained the HER3-ss+4aa/Gaussia Luciferase cDNA insert whose expression was regulated under the T-REx™ system. The day before assay, cells were trypsinized and plated in 384-well tissue culture plates. The next day, compound dilutions in DMSO/media containing doxycycline were added to the wells and incubated at 37° C., 5% CO2.
(§1) For chemical structures that include one or more stereoisomers, but are illustrated without indicating stereochemistry, the assay data refers to a mixture of stereoisomers.

[4] = test system: TNFα-FL/Gaussia Luciferase; assay: Dox Induced TNFα-FL-Gluc Assay; format: cell-based; conditions: Table 3
Description: Flp-In 293 T-REx™ cells were transfected with pcDNA™5/FRT/TO plasmid inserted with cDNA encoding Gaussia Luciferase fused to the 3′ end of cDNA encoding full length TNFα (amino acids 1-233). Transfected cells were selected for resistance to the selectable markers Hygromycin and Blasticidin to create a stable cell line that contained the TNFα-FL/Gaussia Luciferase cDNA insert whose expression was regulated under the T-REx™ system. The day before assay, cells were trypsinized and plated in 384-well tissue culture plates. The next day, compound dilutions in DMSO/media containing doxycycline were added to the wells and incubated at 37° C., 5% CO2.
as §1

[5] = test system: multiple myeloma cell line NCI-H929; assay: H929 Cell Viability Assay; format: cell-based, human; conditions: Homo sapiens; NCI-H929 cells, 48 hours, Celltiter-Glo; read-out: 48 hr H929 Viability Celltiter-Glo: Mean EC50
Procedure, shortened: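 NCI-H929 cells, resuspended in RPMI 1640 with 10% FBS and 2 mM glutamine, were treated with compound dilutions in DMSO/media and incubated 48 hours at 37° C, 5% CO2. Viability was read by CellTiter-Glo luminescence. Compounds drawn without stereochemistry were tested as stereoisomer mixtures.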

[6] = test system: multiple myeloma cell line U266B1; assay: U266 Cell Viability Assay; format: cell-based; conditions: Homo sapiens, U-266; U266B1 cells, 48 hours, Celltiter-Glo; read-out: 48 hr U266 Viability Celltiter-Glo: Mean EC50
Procedure, shortened: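 Cells grown in RPMI 1640 with 10% FBS, 2 mM glutamine and penicillin/streptomycin were exposed to compound dilutions in DMSO/media for 48 hours at 37° C., 5% CO2. Viability was read by CellTiter-Glo luminescence. Undefined stereocentres mean data for stereoisomer mixtures.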

[7] = Liver Microsome Stability Assay, mouse; format: in vitro ADME; conditions: mouse liver microsomes 1.0 mg/mL, 1.0 uM compound, 37° C., 1 mM NADPH
Procedure, shortened: (§2)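 Incubations at 37° C contain 1.0 mg/mL liver microsomes and 1.0 uM compound, with 1 mM NADPH present or absent. Time points are 0 and 30 minutes.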

[8] = Liver Microsome Stability Assay, rat; format: in vitro ADME; conditions: rat liver microsomes 1.0 mg/mL, 1.0 uM compound, 37° C., 1 mM NADPH
Procedure, shortened: as §2

[9] = Liver Microsome Stability Assay, monkey; format: in vitro ADME; conditions: monkey liver microsomes 1.0 mg/mL, 1.0 uM compound, 37° C., 1 mM NADPH
Procedure, shortened: as §2

[10] = Liver Microsome Stability Assay, human; format: in vitro ADME; conditions: human liver microsomes 1.0 mg/mL, 1.0 uM compound, 37° C., 1 mM NADPH
Procedure, shortened: as §2

CD47(ss + 10)Gluc = assay: Dox-Induced CD47-ss-Gluc Assay; format: cell-based; conditions: Flp-In 293 T-REx cells, 24 hours with doxycycline; Table 1; read-out: 24 hr Dox Inducible CD47(ss + 10)Gluc 293FRT/TO: Mean IC50
[11] = test system: IL6R-ss+10aa/Gaussia Luciferase; assay: Dox-induced IL-6R-ss-Gluc Assay; format: cell-based; conditions: Table 1; for IC50: Flp-In 293 T-REx cells, 24 hours with doxycycline, read-out: 24hr Dox Inducible IL6R(ss + 10)Gluc 293FRT/TO: Mean IC50; for 24hr Dox Inducible IL6R(ss + 10)Gluc 293FRT/TO: IL6R/PD1: ratio of IC50s IL6R/PD1
Procedure, shortened: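 Flp-In 293 T-REx cells stably carrying a doxycycline-inducible IL6R signal sequence+10 aa fused to Gaussia luciferase. Cells plated the day before; compound dilutions added in DMSO/media containing doxycycline and incubated at 37 °C, 5% CO2.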

| SMILES | IC50 ([1]; Table 3) [µM] | IC50 ([2]; Table 3) [µM] | 24 hr Dox Inducible IL2FLGluc 293FRT/TO: IL2/PD1 ([2]; Table 3) | IC50 [3] [µM] | IC50 ([4]; Flp-In 293 T-REx cells, 24 hours with doxycycline, read-out: 24 hr Dox Inducible TNFaFLGluc 293FRT/TO: Mean IC50) [µM] | 24 hr Dox Inducible TNFaFLGluc 293FRT/TO: TNF/PD1 ([4]; ratio of IC50s TNF/PD1) | EC50 [5] [µM] | EC50 [6] [µM] | Liver Microsome Stability (Multiple Species): Mouse - % Remaining after 30 min w/ NADPH (%) [7] [%] | Liver Microsome Stability (Multiple Species): Rat - % Remaining after 30 min w/ NADPH (%) [8] [%] | Liver Microsome Stability (Multiple Species): Monkey - % Remaining after 30 min w/ NADPH (%) [9] [%] | Liver Microsome Stability (Multiple Species): Human - % Remaining after 30 min w/ NADPH (%) [10] [%] | IC50 ([1]; Table 1) [µM] | IC50 ([2]; Table 1) [µM] | 24 hr Dox Inducible IL2FLGluc 293FRT/TO: IL2/PD1 ([2]; Table 1) | IC50 (CD47(ss + 10)Gluc) [µM] | IC50 [11] [µM] | 24hr Dox Inducible IL6R(ss + 10)Gluc 293FRT/TO: IL6R/PD1 [11] |
| --- | --- | --- | --- | --- | --- | --- | --- | --- | --- | --- | --- | --- | --- | --- | --- | --- | --- | --- |
| O=C(Nc1nc(/C=C/c2ncn(C3CC3)c2Cl)cs1)c1cc(Cl)cn1Cc1ccnc(F)c1 [Compound A12] | 0.011 | 1.53 | 150 | 1.15 | 8.54 | 807 | 10.2 | > 25 | 78 | 17 | 5 | 8 |  |  |  |  |  |  |
| N[C@H]1CC[C@H](/C=C/c2csc(NC(=O)c3cccn3Cc3ccncc3)n2)CC1 [Compound B18, N-(4-((E)-2-((1r,4r)-4-aminocyclohexyl)vinyl)thiazol-2-yl)-1-(pyridin-4-ylmethyl)-1H-pyrrole-2-carboxamide] |  |  |  |  |  |  | > 25 | > 25 | 45 | 6 | <1 | <1 | 11.3 | > 25 | >2.2 | > 25 | 9.91 | 1 |
| N#Cc1ocnc1/C=C/c1csc(NC(=O)c2cccn2Cc2ccnc(F)c2)n1 [Compound B19, (E)-N-(4-(2-(5-cyanooxazol-4-yl)vinyl)thiazol-2-yl)-1-((2-fluoropyridin-4-yl)methyl)-1H-pyrrole-2-carboxamide] |  |  |  |  |  |  | > 25 | > 25 | 22 | 1 | 6 | 7 | 0.318 | > 25 | >79 | > 25 | > 25 | >79 |
| CC(C)n1cnc(/C=C/c2csc(NC(=O)c3cccn3Cc3ccnc(F)c3)n2)c1C#N [Compound B20, (E)-N-(4-(2-(5-cyano-1-isopropyl-1H-imidazol-4-yl)vinyl)thiazol-2-yl)-1-((2-fluoropyridin-4-yl)methyl)-1H-pyrrole-2-carboxamide] |  |  |  |  |  |  | 8.36 | 15.7 | 5 | 33 | <1 | <1 | 0.009 | 1.53 | 170.0 | 1.52 | 1.32 | 146 |
